# Test results: US8019412B2, “Apparatus for facilitating transdermal delivery of therapeutic substances and method of transdermally delivering therapeutic substances” (International Scientific Pty Ltd., priority 2003, dated 2011)
# System: excised human epidermal membranes
# Type: in vitro ADME
# Description: In an experimental example, penetration of caffeine through excised human epidermal membranes was investigated using Franz-type diffusion cells and standard procedures. An electromagnetic field pattern was created and the penetration results compared with passive diffusion. The electromagnetic field pattern used was generated by applying an energisation signal having 12 pulses at a repeating frequency of 10 Hz to a coil Each of the pulses has a duration of approximately 360 μs. A phosphate buffered saline receptor solution was used and the amount of caffeine in the receptor solution determined by HPLC with UV detection at regular time intervals up to 6 hours post application of the electromagnetic field. In this example, the electromagnetic field pattern was applied for approximately 30 minutes.
# Similar experiments were carried out with electromagnetic fields generated by applying an energisation signal having 15 pulses of 360 μs duration at a repeating frequency of 20 Hz to a coil, and by applying an energisation signal having 255 pulses at a repeating frequency of 2 Hz to a coil. These experiments yielded caffeine flux values of 7.20 μgcm^−2h^−1 and 8.51 μgcm^−2h^−1, although the latter of these experiments produced an effect only after 60 minutes.
# A further experiment was carried out by applying an energisation signal having a single quasi-rectangular pulse repeated at 72 Hz to a coil.
smiles,measurement,value
Cn1c(=O)c2c(ncn2C)n(C)c1=O [caffeine],caffeine flux associated with passive diffusion,~4.1 μgcm^−2h^−1
same,highest caffeine flux achieved with electromagnetic field pattern,19.24 μgcm^−2h^−1
same,time after which an effect was produced,≥ 60 min
